Read-outs that look alike come from different tables or passages of the source.

We go through 1 molecule from patent US10238670B2, “9-aminomethyl minocycline compounds and methods of use thereof in urinary tract infection (UTI) treatment” (Paratek Pharmaceuticals, Inc., priority 2016, dated 2019).

For data set [1] the following is noted: cited from earlier work.
The subject of data set [2] is E. coli (ATCC 25922) biofilm. Kind of data set: MBEC assay, inhibition of biofilm formation. The class given is cell-based, Escherichia coli. As to the method: (§1) The MBEC™ assay (formerly the Calgary biofilm device; Innovotech Inc., Canada) is a well-established high throughput assay for assessment of anti-biofilm activity of test agents in a 96-well format. Within this assay, the biofilm is formed on the plastic pegs of the plate lid. After inoculated media is introduced to the wells of the 96-well plate, the plate is placed in a shaking incubator to generate the necessary shear force for biofilm growth on the pegs. Following a suitable incubation time, the individual biofilms can be treated with varying concentrations of test agents (challenge plate). After the desired treatment time, the remaining biofilm-associated bacteria are retrieved from the pegs through sonication (recovery plate). Serial dilution and/or plating of the recovered bacterial suspension allow for the quantification of test agents' efficacy against pre-formed biofilms. Additionally, readout of the challenge plate from the biofilm treatment can be used to determine MIC values of test agents. The absence of growth in the recovery plate indicates complete biofilm eradication and the lowest concentration of a test agent that achieves this is designated as the minimum biofilm eradication concentration (MBEC). The MBEC™ assay is also amenable to assess potential synergistic effects of combination treatments, as well as efficacy of test agents in inhibiting or inducing biofilm formation.
The MBEC™ plates were inoculated with either 10^5 CFU/mL (low inoculum) or 10^7 CFU/mL (high inoculum) of stationary phase E. coli (ATCC 25922) with simultaneous addition of antibiotics to evaluate the progression of biofilm formation under antibiotic challenge. After 24 hour incubation, the bacteria were recovered and enumerated (as above). FIG. 6. […] FIG. 7.

For data set [3], the system named is E. coli (ATCC 25922) biofilm. Kind of data set: MBEC assay, planktonic adhesion to 6, 12, 24 hour biofilms under sub-MIC treatment. It counts as cell-based, Escherichia coli. As to the method: as §1, with “The MBEC™ assay is also amenable to assess potential synergistic effects of combination treatments, as well as efficacy of test agents in inhibiting or inducing biofilm formation.” left out

Data set [4] in a line: 14C-Compound 1 excretion and kidney/blood distribution in rats. The class given is in vivo, rat.
In data set [5] the test system is E. coli (ATCC 25922) biofilm. The data set is described as follows: MBEC assay, activity against established 24 hour biofilm. The class given is cell-based, Escherichia coli. The note with it: 24 hours challenge. As for the experimental part:
as §1, with “formation. The MBEC™ plates were inoculated with 10^7 CFU/mL of stationary phase E. coli (ATCC 25922) and incubated for 24 hours to allow formation of a robust biofilm. The individual biofilms formed on the pegs were challenged with varying concentrations of antibiotics for 24 hours, followed by recovery of the surviving bacteria. Bacterial enumeration was performed using a Most Probable Number (MPN) assay (Sutton, Journal of Validation Technology 16 (3): 35-38, 2010, incorporated herein by reference) in a 96-well format.” for “formation.”

Consider `CN(C)c1cc(CNCC(C)(C)C)c(O)c2c1C[C@H]1C[C@H]3[C@H](N(C)C)C(O)=C(C(N)=O)C(=O)[C@@]3(O)C(O)=C1C2=O` [Compound 1, 9-[(2,2-dimethyl-propylamino)-methyl]-minocycline], for which the peak plasma concentration in data set [1] (100 mg IV dose) is reported as 1.8 mg/L. Also, the peak plasma concentration in data set [1] (300 mg oral dose) is listed as 0.6 mg/L. Besides, in data set [1] (phase 1 studies), the elimination half-life result is on record as “approximately 17 hours”. Moreover, in data set [2] (0.183 μg/mL (approx. 15% of MIC)), the “less bioburden of biofilm compared to control” value is reported as “approx. 2 log units”. The “lower total bioburden of biofilm vs controls” value in data set [2] (0.743 μg/mL, 24 hour incubation) is 3-4 log units. The “reduction of mean biofilm formation compared to controls” value in data set [2] (0.74 p g/mL, high and low inoculum conditions, respectively) is on record as 3 to 4 log units. The “inhibition of biofilm formation” value in data set [2] (all doses above the MIC) is “strongly inhibits biofilm formation”. In data set [2] (sub-MIC doses), the “induction of biofilm formation” value is “fail to induce biofilm formation”. Also, in data set [3] (24 hour biofilms, 4% of the MIC (0.046 μg/mL), planktonic bacteria present), the “reduction in total biofilm-associated bacteria relative to controls” value is listed as “reduced by about a log”. Also, in data set [3] (sub-MIC concentrations, 6, 12, 24 hour biofilms), the “adhesion of planktonic bacteria to biofilms” value is given as “do not promote additional adhesion of planktonic bacteria”. The “concentration of radioactivity, kidney pelvis” value in data set [4] (IV, 5 minutes post dose) is 11,300 ng/g. The “concentration of radioactivity, blood” value in data set [4] (IV, 24 hrs post dose) was 57.6 ng/mL. In addition, in data set [4] (oral dosing), the “AUCinf, blood” value came out at 3030 ng·h/mL; the “AUCinf, kidney cortex” value was 11,000 ng*h/ml; the “AUCinf, kidney medulla” value is listed as 10,900 ng*h/ml; the “AUCinf, kidney pelvis” value is given as 10,500 ng*h/ml. In data set [4] (oral dosing), the “Cmax, blood” value was 125 ng/mL; the “Cmax, kidney cortex” value was 721 ng/g; the “Cmax, kidney medulla” value worked out at 722 ng/g; the “Cmax, kidney pelvis” value was found to be 1580 ng/g. In addition, the “reduction of total biofilm-associated bacteria” value in data set [5] (at around MIC) was 1-2 log units. Moreover, in data set [5] (at higher concentrations), the reduction in bioburden was 4-5 log units.
